± gives the standard deviation of the averaged measurements.
What was measured:
Assay in all cases: CTG-3D luminescence at 96 h relative to day-0 seeding control (ratio to day 0); higher = more growth / less cytotoxicity; PDxO 3D drug screen (set 2), 96 h, CTG-3D normalised to day-0 seeding control.
HCI-008 = system: HCI-008 (organoid from a HER2-enriched breast cancer xenograft)
HCI-017.E2 = system: HCI-017.E2 (organoid from an ER-positive breast cancer xenograft)
HCI-023 = system: HCI-023 (organoid from a triple-negative breast cancer xenograft)
HCI-024 = system: HCI-024 (organoid from a breast cancer xenograft)
HCI-025 = system: HCI-025 (organoid from a breast cancer xenograft)

CCOc1ccn(-c2ccc(F)cc2)c(=O)c1C(=O)Nc1ccc(Oc2ccnc(N)c2Cl)c(F)c1 [ASLAN002]
CTG-3D luminescence at 96 h
Conditions	12.5 pM	0.00025 µM	0.005 µM	0.1 µM	1 µM	10 µM	100 µM	625 fM
HCI-008, days in culture: 325	1.03	2.2	2.46	3.53	3.54	2.48	1.08	2.16
HCI-008, days in culture: 340	0.543	2.27	1.52	1.76	1.83	–	0.867	0.758
HCI-008, days in culture: 354	1.38	1.4	2.81	1.45	1.54	0.917	0.857	1.08
HCI-008, days in culture: 382	1.45	1.54	1.29	1.09	0.767	1.78	0.377	1.52
HCI-017.E2, days in culture: 85	2.5	1.78	1.94	2.7	2.23	1.93	1.32	2.13
HCI-023, days in culture: 223	1.5	2.83	1.7	2.8	1.5	1.49	1.03	1.61
HCI-023, days in culture: 238	1.66	1.62	1.17	1.42	1.76	1.05	0.917	1.58
HCI-023, days in culture: 252	1.99	1.93	1.78	2.01	2.08	1.47	1.15	2.04
HCI-024, days in culture: 202	1.14	1.03	1.19	1.27	0.701	1.41	0.658	1.61
HCI-024, days in culture: 231	0.919	1.2	1.13	1.05	1.25	1.02	0.471	1.06
HCI-024, days in culture: 254	2.48	0.889	0.968	1.46	1.85	1.96	1	2.45
HCI-025, days in culture: 175	1.55	1.97	1.91	2.81	2.73	2.56	1.7	1.46
HCI-025, days in culture: 189	2.49	2.61	1.96	2.27	2.6	1.72	0.561	2.72
HCI-025, days in culture: 212	1.41	1.8	3.86	1.18	0.524	1.75	0.694	1.16
HCI-025, days in culture: 224	2.08	0.982	2.02	1.32	1.95	1.87	1.18	1.86

HCI-017.E2
Conditions	CTG-3D luminescence at 96 h
12.5 pM	2.06 ± 0.14
0.00025 µM	2.58 ± 0.42
0.005 µM	2.12 ± 0.22
0.1 µM	2.27 ± 0.29
1 µM	2.14 ± 0.28
10 µM	2.39 ± 0.08
100 µM	1.17 ± 0.015
625 fM	2.34 ± 0.14

CC(=O)O[C@@]12CO[C@@H]1C[C@H](O)[C@@]1(C)C(=O)[C@H](O)C3=C(C)[C@@H](OC(=O)[C@H](O)[C@@H](NC(=O)OC(C)(C)C)c4ccccc4)C[C@@](O)([C@@H](OC(=O)c4ccccc4)[C@H]21)C3(C)C [docetaxel]
CTG-3D luminescence at 96 h
Conditions	12.5 pM	0.00025 µM	0.005 µM	0.1 µM	1 µM	10 µM	100 µM	625 fM
HCI-008, days in culture: 325	1.01	1.46	1.35	1.91	2.06	1.53	0.0817	1.14
HCI-008, days in culture: 340	0.747	1.06	1.26	0.976	0.918	–	0.0677	0.77
HCI-008, days in culture: 354	1.16	1.01	1.5	1.16	0.508	1.23	0.211	0.885
HCI-008, days in culture: 382	1.56	1.35	0.719	0.823	0.446	0.547	0.0143	1.74
HCI-017.E2, days in culture: 85	2.47	1.92	0.986	0.975	0.797	0.598	0.154	2.7
HCI-023, days in culture: 223	0.666	0.731	0.679	0.597	0.578	0.746	0.0587	0.745
HCI-023, days in culture: 238	0.654	0.598	0.69	0.7	0.901	0.651	0.265	0.619
HCI-023, days in culture: 252	1.03	0.858	0.757	1.04	0.812	1.27	0.603	1.14
HCI-024, days in culture: 202	0.822	0.868	0.82	1.17	0.844	1.08	0.0987	0.654
HCI-024, days in culture: 231	0.86	0.987	0.75	0.873	1.08	1.06	0.0745	1.06
HCI-024, days in culture: 254	0.926	1.02	1.14	1.11	1.87	0.726	0.241	1.59
HCI-025, days in culture: 175	0.586	0.61	0.547	0.494	0.674	0.771	0.387	0.704
HCI-025, days in culture: 189	0.971	0.89	0.694	1.01	0.76	0.759	0.286	1.74
HCI-025, days in culture: 212	2.49	1.38	0.974	0.822	0.332	0.385	0.187	0.772
HCI-025, days in culture: 224	2.29	2.24	0.853	0.501	0.639	0.685	0.065	1.64

HCI-017.E2
Conditions	CTG-3D luminescence at 96 h
12.5 pM	1.34 ± 0.39
0.00025 µM	1.47 ± 0.34
0.005 µM	1.2 ± 0.14
0.1 µM	1.36 ± 0.4
1 µM	1.14 ± 0.27
10 µM	0.78 ± 0.17
100 µM	0.13 ± 0.015
625 fM	1.38 ± 0.068
